Assay results: ChEMBL document CHEMBL1255325, “Plasmid-mediated qepA gene among Escherichia coli clinical isolates from Japan” (2008)
Values after ≈ are worked out from the molar mass of the structure shown.

Legend:
Escherichia coli [1] = assay: Antimicrobial activity against Escherichia coli DH10B harboring p05283 carrying qepA and rmtB gene by agar dilution CLSI method; assay type: functional
Escherichia coli [2] = assay: Antimicrobial activity against Escherichia coli DH10B harboring p041060 carrying qepA gene by agar dilution CLSI method; assay type: functional
Escherichia coli [3] = assay: Antimicrobial activity against Escherichia coli MRY04-1060 expressing qepA gene by agar dilution CLSI method; assay type: functional
Escherichia coli [4] = assay: Antimicrobial activity against Escherichia coli isolate DH10B by agar dilution CLSI method
Escherichia coli [5] = assay: Antimicrobial activity against Escherichia coli MRY05-3283 expressing qepA and rmtB gene by agar dilution CLSI method; assay type: functional
Escherichia coli [6] = assay: Ratio of MIC for Escherichia coli DH10B harboring p05283 carrying qepA and rmtB gene to MIC for Escherichia coli isolate DH10B; assay type: functional
Escherichia coli [7] = assay: Ratio of MIC for Escherichia coli DH10B harboring p041060 carrying qepA gene to MIC for Escherichia coli isolate DH10B; assay type: functional

| Molecule | MIC (Escherichia coli [1]) [µg/mL] | MIC (Escherichia coli [2]) [µg/mL] | MIC (Escherichia coli [3]) [µg/mL] | MIC (Escherichia coli [4]) [µg/mL] | MIC (Escherichia coli [5]) [µg/mL] | Ratio (Escherichia coli [6]) | Ratio (Escherichia coli [7]) |
| --- | --- | --- | --- | --- | --- | --- | --- |
| NCC[C@H](O)C(=O)N[C@@H]1C[C@H](N)[C@@H](O[C@H]2O[C@H](CN)[C@@H](O)[C@H](O)[C@H]2O)[C@H](O)[C@H]1O[C@H]1O[C@H](CO)[C@@H](O)[C@H](N)[C@H]1O [AMIKACIN] | > 128 | > 128 | > 128 | 2 (≈ 3.42 µM) | > 128 | – | – |
| CO/N=C(\C(=O)N[C@@H]1C(=O)N2C(C(=O)O)=C(COC(C)=O)CS[C@H]12)c1csc(N)n1 [CEFOTAXIME] | 0.06 (≈ 0.132 µM) | 0.06 (≈ 0.132 µM) | 0.13 (≈ 0.285 µM) | 0.06 (≈ 0.132 µM) | 0.13 (≈ 0.285 µM) | – | – |
| CC(C)(O/N=C(\C(=O)N[C@@H]1C(=O)N2C(C(=O)[O-])=C(C[n+]3ccccc3)CS[C@H]12)c1csc(N)n1)C(=O)O [CEFTAZIDIME] | 0.5 (≈ 0.915 µM) | 0.5 (≈ 0.915 µM) | 0.5 (≈ 0.915 µM) | 0.25 (≈ 0.457 µM) | 0.5 (≈ 0.915 µM) | – | – |
| C[C@@H](O)[C@H]1C(=O)N2C(C(=O)O)=C(SCCNC=N)C[C@H]12 [IMIPENEM ANHYDROUS] | – | – | 0.13 (≈ 0.434 µM) | 0.25 (≈ 0.835 µM) | 0.13 (≈ 0.434 µM) | – | – |
| C[C@H]1COc2c(N3CCN(C)CC3)c(F)cc3c(=O)c(C(=O)O)cn1c23.C[C@H]1COc2c(N3CCN(C)CC3)c(F)cc3c(=O)c(C(=O)O)cn1c23.O [LEVOFLOXACIN] | – | – | 64 | ≤ 0.008 | 128 | – | – |
| CCn1cc(C(=O)O)c(=O)c2cc(F)c(N3CCNCC3)cc21 [NORFLOXACIN] | 0.25 (≈ 0.783 µM) | 0.25 (≈ 0.783 µM) | > 128 | ≤ 0.008 | > 128 | 4 | 4 |
| NC[C@H]1O[C@H](O[C@H]2[C@H](O)[C@@H](O[C@H]3O[C@H](CO)[C@@H](O)[C@H](N)[C@H]3O)[C@H](N)C[C@@H]2N)[C@H](N)C[C@@H]1O [TOBRAMYCIN] | > 128 | > 128 | > 128 | 0.5 (≈ 1.07 µM) | > 128 | – | – |
| GENTAMICIN | > 128 | > 128 | > 128 | – | > 128 | – | – |
